Measured values taken from ChEMBL document CHEMBL1201862, “PubChem BioAssay data set” (2004).
Activity calls are given as the source filed them.

Experiments:
[1] = reduction of Shn3 3'UTR-driven luciferase in osteoblasts – cell-based, Clone20 osteoblasts, firefly luciferase, cherry-picked, dose response (AID 624132); assay type: functional;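 also: firefly luciferase luminescence from reporter carrying the Shn3 3'UTR in osteoblasts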
[2] = loss of viability in HepG2 cells – cell-based, CellTiter-Glo, cherry-picked, cytotoxicity control for Shn3 inhibitor project, dose response (AID 624134); assay type: functional
[3] = biological target: T1, Sphingosine 1-phosphate receptor 2 (Homo sapiens, UniProt O95136); assay: Dose Response Cell Based Assay for Antagonists of the S1P2 Receptor. [Related pubchem assays: 856, 736 ]; assay type: functional
[4] = biological target: T2, Neuropeptide Y receptor type 2 (Homo sapiens, UniProt P49146); assay: IC50 for human NPY-Y2 blockade – cell-based, counter-screen for NPY-Y1 antagonist project, dose response (AID 1278); assay type: functional
T2 sequence (P49146 whole entry): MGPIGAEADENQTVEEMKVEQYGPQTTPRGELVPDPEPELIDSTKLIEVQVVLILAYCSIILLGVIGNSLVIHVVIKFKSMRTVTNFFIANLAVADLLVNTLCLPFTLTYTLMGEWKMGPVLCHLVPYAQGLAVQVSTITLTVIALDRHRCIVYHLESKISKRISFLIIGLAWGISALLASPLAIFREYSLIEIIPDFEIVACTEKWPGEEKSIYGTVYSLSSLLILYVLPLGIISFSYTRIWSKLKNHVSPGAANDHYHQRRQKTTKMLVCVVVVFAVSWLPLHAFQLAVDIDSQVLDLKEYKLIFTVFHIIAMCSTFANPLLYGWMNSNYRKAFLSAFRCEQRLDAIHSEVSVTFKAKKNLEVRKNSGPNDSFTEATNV

[5] = biological target: T3, Neuropeptide Y receptor type 1 (Homo sapiens, UniProt P25929); assay: IC50 of human NPY-Y1 blockers – cell-based, dose response (AID 1277); assay type: functional
T3 sequence (P25929 whole entry): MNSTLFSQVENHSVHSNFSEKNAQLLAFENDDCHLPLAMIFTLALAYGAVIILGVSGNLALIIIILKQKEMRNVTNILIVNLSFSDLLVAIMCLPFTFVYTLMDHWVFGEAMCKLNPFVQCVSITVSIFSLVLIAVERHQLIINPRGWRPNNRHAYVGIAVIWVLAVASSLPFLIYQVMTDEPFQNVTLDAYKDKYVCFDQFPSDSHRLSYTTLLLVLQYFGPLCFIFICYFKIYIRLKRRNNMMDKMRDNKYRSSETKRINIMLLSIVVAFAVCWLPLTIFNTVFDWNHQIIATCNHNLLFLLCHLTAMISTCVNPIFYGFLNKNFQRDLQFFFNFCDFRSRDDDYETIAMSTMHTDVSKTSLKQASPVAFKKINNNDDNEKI

[6] = non-specific 3'UTR reporter inhibition in Clone20-Shn3RL – cell-based, Renilla luciferase, cherry-picked, counter-screen for Shn3 inhibitor project, dose response (AID 624133); assay type: functional
Cytochrome P450 2C19 = Cytochrome P450 2C19 (Homo sapiens, UniProt P33261); assay: qHTS Assay for Inhibitors and Substrates of Cytochrome P450 2C19. [Related pubchem assays: 410 ]; assay type: ADME; conditions: read-out: Potency
[7] = viability loss in HeLa cells – cytotoxicity control for MgcRacGAP inhibitor project, dose response (AID 624300); assay type: functional
Vero = assay: inhibition of WNV-induced cytopathic effect – cell-based, CPE readout (AID 1621); assay type: functional; conditions: Chlorocebus sabaeus
[8] = biological target: T4, Rac GTPase-activating protein 1 (Homo sapiens, UniProt Q9H0H5); assay: blockers of MgcRacGAP-driven Rac1 GTP hydrolysis – biochemical, ADP Hunter fluorescence, primary and confirmatory, confirmation (AID 624330); assay type: functional
T4 sequence (Q9H0H5 whole entry): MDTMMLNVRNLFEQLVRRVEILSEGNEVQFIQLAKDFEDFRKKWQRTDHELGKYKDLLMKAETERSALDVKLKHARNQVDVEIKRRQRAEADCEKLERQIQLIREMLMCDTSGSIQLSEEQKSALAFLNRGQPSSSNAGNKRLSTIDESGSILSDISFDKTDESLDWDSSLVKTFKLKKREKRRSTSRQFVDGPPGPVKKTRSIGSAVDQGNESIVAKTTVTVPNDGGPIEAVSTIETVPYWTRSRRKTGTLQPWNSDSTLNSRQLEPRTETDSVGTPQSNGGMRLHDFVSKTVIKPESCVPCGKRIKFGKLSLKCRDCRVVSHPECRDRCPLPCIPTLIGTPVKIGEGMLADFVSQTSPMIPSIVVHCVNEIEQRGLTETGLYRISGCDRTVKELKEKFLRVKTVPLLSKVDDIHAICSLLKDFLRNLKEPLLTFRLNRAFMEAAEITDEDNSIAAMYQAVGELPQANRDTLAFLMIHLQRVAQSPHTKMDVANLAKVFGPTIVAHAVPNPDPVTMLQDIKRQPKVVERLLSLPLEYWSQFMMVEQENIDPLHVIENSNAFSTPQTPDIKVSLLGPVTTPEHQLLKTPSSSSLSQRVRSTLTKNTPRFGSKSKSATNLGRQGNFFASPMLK

14-3-3 protein gamma = 14-3-3 protein gamma (Homo sapiens, UniProt P61981); assay: modulators of 14-3-3 gamma client binding – dose response (AID 711); assay type: functional
[9] = biological target: T1, Sphingosine 1-phosphate receptor 2; assay: Dose Response Cell Based Assay for Agonists of the S1P2 Receptor. [Related pubchem assays: 729, 736, 843 ]; assay type: functional
[10] = biological target: T1, Sphingosine 1-phosphate receptor 2; assay: Dose Response Cell Based Assay for Agonists of the S1P2 Receptor of Purchased Analogues. [Related pubchem assays: 729, 843, 854, 736 ]; assay type: functional
[11] = biological target: Diphosphomevalonate decarboxylase (Streptococcus pneumoniae serotype 2 (strain D39 / NCTC 7466), UniProt Q9FD53); assay: diphosphomevalonate decarboxylase inhibitor confirmation – biochemical, cuvette format, coupled NADH fluorescence (AID 1028); assay type: functional
[12] = biological target: Lytic switch protein BZLF1 (Epstein-Barr virus (strain B95-8) (HHV-4) (Human herpesvirus 4), UniProt P03206); assay: inhibition of BZLF1 ZTA DNA binding – biochemical, fluorescence polarization, Epstein-Barr virus, 1536-well, counter-screen for EBNA-1 inhibitor project, dose response (AID 2377); set-up: species or system human gammaherpesvirus 4;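 also: fluorescence polarization of Cy5-labelled ZRE DNA probe bound by purified Zta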
[13] = biological target: Epstein-Barr nuclear antigen 1 (Epstein-Barr virus (strain B95-8) (HHV-4) (Human herpesvirus 4), UniProt P03211); assay: inhibition of EBV nuclear antigen 1 DNA binding – biochemical, fluorescence polarization, 1536-well, dose response (AID 2381); set-up: species or system human gammaherpesvirus 4;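 also: fluorescence polarization of a Cy5 DNA probe bound by EBNA-1 protein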
[14] = fluconazole-exposed Candida albicans growth modulators – fluorescence, retest, confirmation (AID 2467); assay type: functional, cell-based
[15] = biological target: Bifunctional protein GlmU (Mycobacterium tuberculosis, UniProt P9WMN3); assay: Inhibitors of Mycobacterial Glucosamine-1-phosphate acetyl transferase (GlmU). Secondary screen.; set-up: species or system Mycobacterium tuberculosis H37Rv
[16] = NIH-3T3 fibroblast cytotoxicity, dose response, cytotoxicity control, cell-based, fluorescence, Alamar Blue, secondary assay (AID 2327); assay type: functional;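 also: NIH-3T3 mouse fibroblasts cultured with fluconazole at 8 µg/mL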
[17] = biological target: T5, Carboxy-terminal domain RNA polymerase II polypeptide A small phosphatase 1 (Homo sapiens, UniProt Q9GZU7); assay: CTDSP1 inhibitors, concentration-response, biochemical, absorbance readout, ultra-high-throughput screen actives (AID 540297); assay type: functional
T5 sequence (Q9GZU7 whole entry): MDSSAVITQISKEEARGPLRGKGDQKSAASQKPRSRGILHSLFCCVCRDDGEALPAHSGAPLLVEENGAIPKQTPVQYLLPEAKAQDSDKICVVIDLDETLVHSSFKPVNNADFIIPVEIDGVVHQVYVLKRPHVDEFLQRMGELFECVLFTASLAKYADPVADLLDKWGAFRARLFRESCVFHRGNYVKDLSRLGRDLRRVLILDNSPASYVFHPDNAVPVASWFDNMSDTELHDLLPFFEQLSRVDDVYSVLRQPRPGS

Genome polyprotein = Genome polyprotein (dengue virus type 2, UniProt P29990); assay: flavivirus cap methylation enzyme inhibition – biochemical, confirmation dose response, primary screen (AID 588689); assay type: functional
Aminopeptidase N = biological target: T6, Aminopeptidase N (Plasmodium falciparum FcB1/Columbia, UniProt O96935); assay: malaria alanyl aminopeptidase activity blockers – biochemical, fluorogenic H-Leu-NHMec substrate, 1536-well (AID 1445); set-up: species or system Plasmodium falciparum 3D7, 3D7
T6 sequence (O96935 whole entry): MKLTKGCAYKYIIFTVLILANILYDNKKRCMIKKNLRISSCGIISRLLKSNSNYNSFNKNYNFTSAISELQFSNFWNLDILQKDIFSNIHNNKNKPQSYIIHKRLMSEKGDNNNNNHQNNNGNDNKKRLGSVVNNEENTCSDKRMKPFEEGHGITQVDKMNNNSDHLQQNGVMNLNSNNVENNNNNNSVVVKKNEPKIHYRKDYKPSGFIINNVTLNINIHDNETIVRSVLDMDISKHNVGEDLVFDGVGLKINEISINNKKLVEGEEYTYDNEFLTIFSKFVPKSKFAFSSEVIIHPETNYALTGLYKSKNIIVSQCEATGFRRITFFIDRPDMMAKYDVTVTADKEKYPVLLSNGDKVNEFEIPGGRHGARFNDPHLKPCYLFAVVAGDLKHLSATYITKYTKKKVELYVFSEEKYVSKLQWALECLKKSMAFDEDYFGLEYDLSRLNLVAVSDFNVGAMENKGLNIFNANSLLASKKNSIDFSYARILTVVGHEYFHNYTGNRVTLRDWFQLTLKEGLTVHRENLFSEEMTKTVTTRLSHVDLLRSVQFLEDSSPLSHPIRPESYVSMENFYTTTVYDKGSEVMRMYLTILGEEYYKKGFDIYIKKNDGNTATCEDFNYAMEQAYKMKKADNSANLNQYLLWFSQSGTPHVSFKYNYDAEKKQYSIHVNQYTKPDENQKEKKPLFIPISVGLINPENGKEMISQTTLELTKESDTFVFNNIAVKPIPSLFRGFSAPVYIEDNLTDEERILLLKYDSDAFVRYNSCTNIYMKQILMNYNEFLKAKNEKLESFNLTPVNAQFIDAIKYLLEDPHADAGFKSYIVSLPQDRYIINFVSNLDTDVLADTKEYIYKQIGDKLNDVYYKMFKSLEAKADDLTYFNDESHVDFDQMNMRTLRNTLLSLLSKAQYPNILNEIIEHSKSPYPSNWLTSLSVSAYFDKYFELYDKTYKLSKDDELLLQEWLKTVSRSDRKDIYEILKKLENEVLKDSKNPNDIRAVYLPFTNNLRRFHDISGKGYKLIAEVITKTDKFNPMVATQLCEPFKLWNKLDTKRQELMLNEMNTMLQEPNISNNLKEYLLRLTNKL

NADPH oxidase 1 = NADPH oxidase 1 (Homo sapiens, UniProt Q9Y5S8); assay: Late-stage luminescence-based cell-based dose response assay to identify inhibitors of NADPH oxidase 1 (NOX1): Synthesized analogs 3.; assay type: functional
[18] = biological target: Mitogen-activated protein kinase 10 (Homo sapiens, UniProt P53779); assay: Dose response biochemical screening assay for inhibitors of c-Jun N-Terminal Kinase 3 (JNK3). [Related pubchem assays: 746 ]
Prothrombin = Prothrombin (Homo sapiens, UniProt P00734); assay: Thrombin 1536 HTS Dose Response Confirmation. [Related pubchem assays: 1046 (Thrombin 1536 HTS; hits were confirmed in this assay)]; assay type: functional
Coagulation factor XII = biological target: T7, Coagulation factor XII (Homo sapiens, UniProt P00748); assay type: functional;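 also: activated factor XIIa alpha cleaving a fluorogenic AMC peptide substrate; inhibitor potency from loss of enzyme activity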
T7 sequence (P00748 whole entry): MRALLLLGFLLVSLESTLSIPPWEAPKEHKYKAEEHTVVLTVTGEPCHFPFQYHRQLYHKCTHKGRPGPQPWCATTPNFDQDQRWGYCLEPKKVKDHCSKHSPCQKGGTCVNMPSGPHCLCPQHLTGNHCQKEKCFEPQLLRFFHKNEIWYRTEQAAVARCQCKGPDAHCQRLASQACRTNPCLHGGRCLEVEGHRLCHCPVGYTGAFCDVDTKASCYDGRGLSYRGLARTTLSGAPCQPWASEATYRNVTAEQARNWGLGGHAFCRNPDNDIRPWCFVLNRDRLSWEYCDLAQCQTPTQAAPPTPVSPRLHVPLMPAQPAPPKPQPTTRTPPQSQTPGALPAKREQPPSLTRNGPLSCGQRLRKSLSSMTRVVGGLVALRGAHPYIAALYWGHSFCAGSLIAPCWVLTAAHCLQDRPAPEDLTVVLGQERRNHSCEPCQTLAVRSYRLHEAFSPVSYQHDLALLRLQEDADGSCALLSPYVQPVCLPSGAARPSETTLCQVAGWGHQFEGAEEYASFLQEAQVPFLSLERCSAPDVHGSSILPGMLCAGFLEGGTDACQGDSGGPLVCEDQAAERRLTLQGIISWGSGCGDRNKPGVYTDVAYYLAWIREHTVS

T1 sequence (O95136 whole entry): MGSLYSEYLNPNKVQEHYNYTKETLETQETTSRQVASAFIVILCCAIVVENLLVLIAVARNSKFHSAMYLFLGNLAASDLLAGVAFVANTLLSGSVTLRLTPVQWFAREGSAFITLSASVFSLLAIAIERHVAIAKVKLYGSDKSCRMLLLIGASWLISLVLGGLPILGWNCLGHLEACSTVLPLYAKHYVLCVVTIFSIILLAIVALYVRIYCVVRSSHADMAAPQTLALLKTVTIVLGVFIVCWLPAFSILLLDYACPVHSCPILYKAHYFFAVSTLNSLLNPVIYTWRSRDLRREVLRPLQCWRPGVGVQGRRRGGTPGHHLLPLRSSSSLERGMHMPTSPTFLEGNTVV
Sequence of Cytochrome P450 2C19 (P33261 whole entry): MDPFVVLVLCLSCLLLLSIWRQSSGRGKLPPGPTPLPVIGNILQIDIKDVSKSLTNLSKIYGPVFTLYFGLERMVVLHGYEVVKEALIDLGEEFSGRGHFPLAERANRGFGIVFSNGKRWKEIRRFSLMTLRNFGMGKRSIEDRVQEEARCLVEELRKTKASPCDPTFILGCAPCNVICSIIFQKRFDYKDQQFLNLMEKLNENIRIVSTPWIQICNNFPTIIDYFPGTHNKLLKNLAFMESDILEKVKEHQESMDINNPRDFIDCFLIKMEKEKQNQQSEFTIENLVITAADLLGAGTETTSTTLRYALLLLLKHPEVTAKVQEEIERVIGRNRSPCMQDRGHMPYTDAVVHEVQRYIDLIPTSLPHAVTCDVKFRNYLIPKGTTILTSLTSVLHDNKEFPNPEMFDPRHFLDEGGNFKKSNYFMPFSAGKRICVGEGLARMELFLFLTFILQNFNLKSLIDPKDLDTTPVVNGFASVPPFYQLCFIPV
Sequence of 14-3-3 protein gamma (P61981 whole entry): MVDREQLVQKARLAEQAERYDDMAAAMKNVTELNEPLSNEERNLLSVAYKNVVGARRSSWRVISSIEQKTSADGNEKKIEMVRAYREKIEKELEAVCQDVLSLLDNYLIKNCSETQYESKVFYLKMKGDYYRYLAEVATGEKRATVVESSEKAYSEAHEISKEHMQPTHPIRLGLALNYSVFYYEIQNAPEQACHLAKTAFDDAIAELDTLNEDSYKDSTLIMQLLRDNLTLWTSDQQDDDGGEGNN
Sequence of Bifunctional protein GlmU (P9WMN3 whole entry): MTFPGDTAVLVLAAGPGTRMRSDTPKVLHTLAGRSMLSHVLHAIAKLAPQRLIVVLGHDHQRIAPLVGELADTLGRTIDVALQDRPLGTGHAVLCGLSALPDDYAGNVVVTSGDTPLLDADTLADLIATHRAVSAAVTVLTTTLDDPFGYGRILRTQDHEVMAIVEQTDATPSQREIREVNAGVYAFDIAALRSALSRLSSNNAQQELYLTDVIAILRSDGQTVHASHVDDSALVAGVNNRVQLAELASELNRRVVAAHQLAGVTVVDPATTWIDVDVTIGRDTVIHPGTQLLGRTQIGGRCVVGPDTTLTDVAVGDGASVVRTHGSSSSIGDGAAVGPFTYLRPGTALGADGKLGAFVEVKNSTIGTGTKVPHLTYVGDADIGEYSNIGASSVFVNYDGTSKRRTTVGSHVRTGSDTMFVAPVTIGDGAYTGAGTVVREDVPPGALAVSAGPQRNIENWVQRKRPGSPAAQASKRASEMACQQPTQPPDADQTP
Sequence of Diphosphomevalonate decarboxylase (Q9FD53 whole entry): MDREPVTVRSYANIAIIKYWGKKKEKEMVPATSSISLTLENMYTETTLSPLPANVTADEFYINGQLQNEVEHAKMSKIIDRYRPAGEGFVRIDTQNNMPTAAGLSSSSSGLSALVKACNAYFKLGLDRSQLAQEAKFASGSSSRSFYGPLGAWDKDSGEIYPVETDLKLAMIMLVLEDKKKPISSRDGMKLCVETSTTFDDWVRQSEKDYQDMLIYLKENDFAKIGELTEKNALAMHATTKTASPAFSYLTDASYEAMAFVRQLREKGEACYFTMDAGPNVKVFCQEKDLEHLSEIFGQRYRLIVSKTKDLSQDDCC
Sequence of Epstein-Barr nuclear antigen 1 (P03211 whole entry): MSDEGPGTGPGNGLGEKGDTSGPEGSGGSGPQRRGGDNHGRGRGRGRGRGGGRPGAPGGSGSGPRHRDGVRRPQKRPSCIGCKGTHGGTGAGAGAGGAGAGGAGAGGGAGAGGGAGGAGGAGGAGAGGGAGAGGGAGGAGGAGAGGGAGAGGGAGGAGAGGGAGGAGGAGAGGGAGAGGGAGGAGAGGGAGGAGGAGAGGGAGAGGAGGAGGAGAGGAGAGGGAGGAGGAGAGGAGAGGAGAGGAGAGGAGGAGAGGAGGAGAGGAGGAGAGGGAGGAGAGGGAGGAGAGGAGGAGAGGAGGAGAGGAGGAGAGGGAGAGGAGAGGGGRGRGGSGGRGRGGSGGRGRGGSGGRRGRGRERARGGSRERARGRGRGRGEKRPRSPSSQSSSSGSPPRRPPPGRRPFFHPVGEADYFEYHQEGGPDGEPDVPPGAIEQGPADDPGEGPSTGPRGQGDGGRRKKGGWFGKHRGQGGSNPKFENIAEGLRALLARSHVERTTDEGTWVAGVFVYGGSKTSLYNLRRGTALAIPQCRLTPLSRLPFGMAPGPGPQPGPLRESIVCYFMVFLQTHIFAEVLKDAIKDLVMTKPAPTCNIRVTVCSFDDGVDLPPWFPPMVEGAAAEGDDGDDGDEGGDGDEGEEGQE
Sequence of Mitogen-activated protein kinase 10 (P53779 whole entry): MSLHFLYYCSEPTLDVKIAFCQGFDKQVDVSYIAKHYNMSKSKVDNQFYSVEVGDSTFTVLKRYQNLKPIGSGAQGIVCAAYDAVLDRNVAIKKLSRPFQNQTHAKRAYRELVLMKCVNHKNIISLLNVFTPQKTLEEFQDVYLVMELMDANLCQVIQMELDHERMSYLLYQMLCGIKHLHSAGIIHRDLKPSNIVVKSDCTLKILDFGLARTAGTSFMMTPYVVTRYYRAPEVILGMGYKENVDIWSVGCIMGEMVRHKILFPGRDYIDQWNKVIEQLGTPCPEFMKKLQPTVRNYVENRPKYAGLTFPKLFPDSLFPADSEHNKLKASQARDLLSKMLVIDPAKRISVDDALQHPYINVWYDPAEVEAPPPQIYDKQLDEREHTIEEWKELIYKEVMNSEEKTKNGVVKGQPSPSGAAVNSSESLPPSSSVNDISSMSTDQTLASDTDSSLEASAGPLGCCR
Sequence of Lytic switch protein BZLF1 (P03206 whole entry): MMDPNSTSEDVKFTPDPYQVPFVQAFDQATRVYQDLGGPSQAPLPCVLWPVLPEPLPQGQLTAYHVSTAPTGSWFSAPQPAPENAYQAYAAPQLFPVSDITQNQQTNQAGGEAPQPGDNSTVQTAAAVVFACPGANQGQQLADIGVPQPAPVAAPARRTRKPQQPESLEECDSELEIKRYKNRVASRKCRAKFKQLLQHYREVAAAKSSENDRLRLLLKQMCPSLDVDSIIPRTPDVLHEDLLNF
Sequence of Genome polyprotein (P29990 2492-3391 limits assumed): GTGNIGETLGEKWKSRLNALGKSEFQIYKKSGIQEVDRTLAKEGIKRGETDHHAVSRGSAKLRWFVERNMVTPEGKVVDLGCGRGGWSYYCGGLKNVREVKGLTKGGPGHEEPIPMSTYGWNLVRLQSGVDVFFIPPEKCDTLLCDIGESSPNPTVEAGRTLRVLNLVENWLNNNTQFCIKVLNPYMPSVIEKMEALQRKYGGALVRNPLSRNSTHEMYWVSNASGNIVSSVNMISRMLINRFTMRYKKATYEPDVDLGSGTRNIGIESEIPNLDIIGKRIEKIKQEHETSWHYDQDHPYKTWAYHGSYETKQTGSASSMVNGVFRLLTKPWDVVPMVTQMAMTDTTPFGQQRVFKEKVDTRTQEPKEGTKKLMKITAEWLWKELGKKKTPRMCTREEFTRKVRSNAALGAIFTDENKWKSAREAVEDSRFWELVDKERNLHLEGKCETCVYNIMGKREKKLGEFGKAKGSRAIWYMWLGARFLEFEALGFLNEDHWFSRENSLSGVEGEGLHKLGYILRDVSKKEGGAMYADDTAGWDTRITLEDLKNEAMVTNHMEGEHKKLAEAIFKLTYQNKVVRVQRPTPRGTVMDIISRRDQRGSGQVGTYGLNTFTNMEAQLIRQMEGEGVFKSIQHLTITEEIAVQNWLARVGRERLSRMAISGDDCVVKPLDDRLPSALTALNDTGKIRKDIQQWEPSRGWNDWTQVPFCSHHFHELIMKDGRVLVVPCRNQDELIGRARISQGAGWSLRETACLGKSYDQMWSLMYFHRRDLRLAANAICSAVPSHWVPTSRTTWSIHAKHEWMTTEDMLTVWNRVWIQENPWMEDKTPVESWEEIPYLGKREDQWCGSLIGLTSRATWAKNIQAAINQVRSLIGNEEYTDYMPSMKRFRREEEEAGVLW
Sequence of NADPH oxidase 1 (Q9Y5S8 whole entry): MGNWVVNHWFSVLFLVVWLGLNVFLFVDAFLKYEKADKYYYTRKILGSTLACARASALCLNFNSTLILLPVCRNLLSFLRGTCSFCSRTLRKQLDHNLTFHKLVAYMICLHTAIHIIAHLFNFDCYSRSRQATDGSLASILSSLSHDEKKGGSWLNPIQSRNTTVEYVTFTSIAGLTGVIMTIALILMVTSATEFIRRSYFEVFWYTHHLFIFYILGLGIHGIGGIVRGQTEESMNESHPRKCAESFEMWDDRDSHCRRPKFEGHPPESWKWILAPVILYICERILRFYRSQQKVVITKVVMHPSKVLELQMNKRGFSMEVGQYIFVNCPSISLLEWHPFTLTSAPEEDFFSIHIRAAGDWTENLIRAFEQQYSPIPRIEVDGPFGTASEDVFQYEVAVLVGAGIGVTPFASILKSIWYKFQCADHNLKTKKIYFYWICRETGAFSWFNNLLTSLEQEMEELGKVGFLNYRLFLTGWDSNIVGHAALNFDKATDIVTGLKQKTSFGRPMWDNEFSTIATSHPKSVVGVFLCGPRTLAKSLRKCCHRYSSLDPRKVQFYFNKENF

## CCN(C(=O)c1ccc(C(C)(C)C)cc1)c1nnc(Cn2nnc3ccccc32)s1
[1]
  AC50: 1.35 µM (active)
[2]
  AC50: 1.55 µM (active)
[3]
  IC50: 83.8 µM (not active)
[4]
  IC50: 7.74 µM (active)
[5]
  IC50: 3.21 µM (active)
[6]
  AC50: 2 µM (active)

## CNc1ccccc1C(=O)OCC(=O)c1ccccc1
Cytochrome P450 2C19
  AC50: 2 µM (inconclusive)

## CCOC(=O)c1c(NC(=O)CN(C)C2CCN(C)CC2)sc(C(=O)Nc2ccccc2)c1C
[7]
  CC50: 100 µM (active)
Vero
  IC50: 24.3 µM (active)
[8]
  IC50: 76.9 µM (active)

## COc1ccc(OC)c(NC(=O)CCN2CCCC(C)C2)c1 (stereo unspecified)
14-3-3 protein gamma
  IC50: > 50 µM (not active)

## c1ccc(OCCSc2nnnn2-c2ccccc2)cc1
[9]
  EC50: > 50 µM (not active)

## Cc1cc(C(=O)CN(C)Cc2ccco2)c(C)n1Cc1ccccc1
[10]
  EC50: > 30 µM (not active)

## O=C(NCc1ccccc1)c1ccccc1-n1sc2ccccc2c1=O
[11]
  IC50: 12.4 µM (active)

## COCCCNC(=O)c1c(N)n(-c2ccc(S(N)(=O)=O)cc2)c2nc3ccccc3nc12
[12]
  IC50: > 111 µM (not active)
[13]
  IC50: > 5.47 µM (active)

## COC(=O)c1ccc(N2NC(=O)/C(=C/c3ccc(-c4ccc(Cl)c(C(=O)O)c4)o3)C2=O)cc1
[14]
  EC50: > 38 µM (not active)
[15]
  IC50: 75.8 µM (active)
[16]
  EC50: > 150 µM (inconclusive)
[17]
  IC50: 2.15 µM (active)
Genome polyprotein
  IC50: 11.9 µM (active)
Aminopeptidase N
  IC50: 28.6 µM (active)

## CN1c2ccc(Br)cc2Sc2cc(C(=O)c3ccc(N=[N+]=[N-])cc3)ccc21
NADPH oxidase 1
  IC50: 13.7 µM (active)

## CS(=O)(=O)N1CCN(c2ccccc2NC(=O)Cc2ccccc2)CC1
[18]
  IC50: 68.8 µM (not active)

## COc1ccc(/C=N/NC(=O)c2sc3nc(C)cc(C)c3c2N)cc1
Prothrombin
  IC50: > 50 µM (not active)
Coagulation factor XII
  IC50: > 50 µM (inactive)
